Measured values from patent US5736518A, “Peptide compounds of (L) amino acids and ring molecules, and therapeutical applications thereof” (Polifarma S.p.A., priority 1990, dated 1998).
Square brackets hold non-standard residues; d marks the D form. Peptide text beside a SMILES is read from it. * marks the point of attachment. Trp(1-Me) = Cn1cc(C[C@H](N)C(=O)O)c2ccccc21; Tic = O=C(O)[C@@H]1Cc2ccccc2CN1; pGlu = O=C1CC[CH](C(=O)O)N1; Hyp = O=C(O)[CH]1C[CH](O)CN1; Phg = N[CH](C(=O)O)c1ccccc1; ΔPro = O=C(O)[C@@H]1C=CCN1; Pip = O=C(O)[C@@H]1CCCCN1; αMeP = C[C]1(C(=O)O)CCCN1; Cbz = O=C(OCc1ccccc1)*; Aze = O=C(O)[CH]1CCN1; Boc = CC(C)(C)OC(=O)*

Key:
[1] = test system: spontaneously hyper-tensive rats (SHR from the company Charles River); experiment: pressure tests in spontaneously hypertensive rats, awake and free to move; type: in vivo
Text: (§1) In the following examples will first of all be given the data necessary for synthesis of the compounds according to the present invention. There will then be given data regarding their pharmacological activity, using methods widely known to be valid. In particular, for the pressure tests, spontaneously hyper-tensive rats were used (SHR from the company Charles River), operated in such a way as to enable pressure to be read even when the animals were awake and free to move. In order to evaluate the analgesic activity, the Hot Plate and Writhing Tests were used. For the anti-inflammatory effect the test of carraginine edema was used. Finally, for immuno-modulating activity the evaluation of the stimulation of growth of human lymphocytes in culture was resorted to, after the addition of specific antigens.

[2] = test system: carraginine edema; experiment: anti-inflammatory effect, test of carraginine edema; type: in vivo; settings: edema from carrageenin; dose not stated
Text: as §1, with “antigens. The results obtained for each synthesized compound are given at the end of each example.” for “antigens.”

[3] = analgesic activity, test not given (Hot Plate and Writhing Tests were used); type: in vivo; settings: test and dose not stated
Text: as §1, with “antigens. The results obtained for each synthesized compound are given at the end of each example.” for “antigens.”

[4] = test system: human lymphocytes in culture; experiment: immuno-modulating activity: stimulation of growth of human lymphocytes in culture after addition of specific antigens; type: cell-based; settings: for immune response / immuno-stimulating activity (in words): human lymphocytes in culture, antigen not stated
Text: as §1, with “antigens. The results obtained for each synthesized compound are given at the end of each example.” for “antigens.”

[5] = Hot Plate test (analgesic activity); type: in vivo
Text: as §1, with “antigens. The results obtained for each synthesized compound are given at the end of each example.” for “antigens.”

SMILES | anti-hypertensive effect (in words) ([1]; dose not stated) | anti-inflammatory effect (in words) [2] | immune response / immuno-stimulating activity (in words) [4] | also measured
COC(=O)[C@H](Cc1c[nH]c2ccccc12)NC(=O)[C@H](CC(C)C)NC(=O)[C@@H]1CCC(=O)N1C(=O)OCc1ccccc1 [compound 19, Z-(L)-Pyr-(L)-Leu-(L)-TrpOMe] | slight anti-hypertensive effect | fair anti-inflammatory activity |  | 
COC(=O)[C@@H]1Cc2c([nH]c3ccccc23)CN1C(=O)[C@H](CC(C)C)NC(=O)[C@@H]1CCC(=O)N1 [compound 25, (L)-Pyr-(L)-Leu-(S)-CytOMe] | bland anti-hypertensive effect |  |  | analgesic effect (in words) [3]: weak analgesic activity
COC[C@H](Cc1ccccc1)NC(=O)[C@H](C)NC(=O)[C@@H]1CCCN1C(=O)OCc1ccccc1 [compound 6, Z-(L)-Pro-(L)-Ala-(L)-Pme] |  | rather weak | more consistent | analgesic effect (in words) [3]: good analgesic activity; anti-hypertensive effect (in words) ([1]; 2 mg/Kg i.v.): good anti-hypertensive activity; reduction of pressure after one hour ([1]; 2 mg/Kg i.v., after one hour): approximately 25%
COC(=O)[C@@H]1Cc2c([nH]c3ccccc23)CN1C(=O)[C@H](CC(C)C)NC(=O)[C@@H]1CCC(=O)N1C(=O)OCc1ccccc1 [compound 20, Z-(L)-Pyr-(L)-Leu-(S)-CytOMe] | bland anti-hypertensive activity | fair anti-inflammatory activity |  | 
COC(=O)[C@H](Cc1c[nH]c2ccccc12)NC(=O)[C@H](CC(C)C)NC(=O)c1ccco1 [compound 8, 2-Fur-(L)-Leu-(L)-TrpOMe] |  | slight antiinflammatory effect | strongly stimulated even with small doses of peptide | anti-hypertensive effect (in words) ([1]; 4 mg/Kg i.v.): slight anti-hypertensive effect
COC(=O)[C@H](Cc1c[nH]c2ccccc12)NC(=O)[C@H](CC(C)C)NC(=O)[C@@H]1Cc2ccccc2N1C(=O)OCc1ccccc1 [compound 14, Z-(S)-Dhi-(L)-Leu-(L)-TrpOMe] | bland reduction of pressure |  |  | analgesic effect (in words) [3]: moderate analgesic effect
CCOC(=O)[C@@H]1Cc2c([nH]c3ccccc23)CN1C(=O)[C@H](C)NC(=O)[C@@H]1CCCN1C(=O)OCc1ccccc1 [compound 1, Z-(L)-Pro-(L)-Ala-(S)-CytOEt] |  |  |  | response of lymphocytes stimulated by phytohemoagglutinine (PHA) (in words) ([4]; PHA stimulated lymphocytes): increases the response of lymphocytes; anti-hypertensive effect (in words) ([1]; 4 mg/Kg i.p.): good anti-hypertensive effect; duration of the anti-hypertensive effect ([1]; 4 mg/Kg i.p.): a number of hours; reduction of pressure values ([1]; 4 mg/Kg i.p.): 15-20%; pain killing effect under the Hot Plate test (in words) ([5]; 4 mg/Kg i.p.): slight pain killing effect
COC(=O)[C@@H]1Cc2ccccc2CN1C(=O)[C@H](C)NC(=O)[C@@H]1CCCN1C(=O)OCc1ccccc1 [compound 11, Z-(L)-Pro-(L)-Ala(L)-CypOMe] (Cbz-Pro-Ala-[Tic]-OMe) | slight anti-hypertensive effect | moderate anti-inflammatory effect |  | 
COC(=O)[C@H](Cc1ccc(OC)cc1)NC(=O)[C@H](C)NC(=O)[C@@H]1CCCN1C(=O)OCc1ccccc1 [compound 4, Z-(L)-Pro-(L)-Ala-(L)-OmtOMe] (Cbz-Pro-Ala-Tyr(Me)-OMe) |  |  | slightly increased | anti-hypertensive effect (in words) ([1]; 8 mg/Kg i.v.): bland anti-hypertensive effect
COC(=O)[C@@H]1Cc2ccccc2CN1C(=O)[C@H](CC(C)C)NC(=O)[C@@H]1CCC(=O)N1C(=O)OCc1ccccc1 [compound 21, Z-(L)-Pyr-(L)-Leu-(S)-CyPOMe] | slight anti-hypertensive activity |  | good immuno-stimulating activity | 
C[C@H](NC(=O)[C@@H]1CCCN1C(=O)OCc1ccccc1)C(=O)N1CCc2c([nH]c3ccccc23)C1 [compound 3, Z-(L)-Pro-(L)-Ala-CytH] |  |  |  | anti-hypertensive effect (in words) ([1]; 8 mg/Kg i.p.): bland anti-hypertensive effect
COC(=O)C(Cc1c[nH]c2ccccc12)NC(=O)C(CC(C)C)NC(=O)C1(C)CCCN1C(=O)OC(C)(C)C (stereo not drawn) [compound 12, Boc-(L)-Mep-(L)-Leu-(L)-TrpOMe] (Boc-[αMeP]-Leu-Trp-OMe; configuration not given here) | bland anti-hypertensive effect | reduction of the inflammatory response |  | 
COC(=O)C(NC(=O)CNC(=O)C1CCC(=O)N1)c1ccccc1 (stereo not drawn) [compound 22, (L)-Pyr-Gly-(L)-PhgOMe] ([pGlu]-Gly-[Phg]-OMe; configuration not given here) |  | very good | appears to increase the immune response | anti-hypertensive effect (in words) ([1]; 4 mg/Kg i.p.): excellent anti-hypertensive activity; reduction of pressure values ([1]; 4 mg/Kg i.p.): 20%
COC(=O)[C@H](Cc1cn(C)c2ccccc12)NC(=O)[C@H](C)NC(=O)[C@@H]1CCCN1C(=O)OCc1ccccc1 [compound 7, Z-(L)-Pro-(L)-Ala-(1)-Me-(L)-TrpOMe] (Cbz-Pro-Ala-[Trp(1-Me)]-OMe) |  |  |  | anti-hypertensive effect (in words) ([1]; 2 mg/Kg i.v.): good anti-hypertensive effect; reduction of pressure ([1]; 2 mg/Kg i.v.): 10%
COC(=O)C(Cc1c[nH]c2ccccc12)NC(=O)C(CC(C)C)NC(=O)C1CCN1C(=O)OCc1ccccc1 [compound 17, Z-(S)-Aze-(L)-Leu-(L)-TrpOMe] (Cbz-[Aze]-Leu-Trp-OMe; configuration not given here) | slight anti-hypertensive effect | bland anti-inflammatory activity |  | 
COC(=O)[C@@H]1Cc2ccccc2CN1C(=O)CNC(=O)[C@@H]1CCC(=O)N1 [compound 24, (L)-Pyr-Gly-(L)-CypOMe] ([pGlu]-Gly-[Tic]-OMe) | bland anti-hypertensive action | moderate anti-inflammatory action |  | 
COC(=O)[C@H](Cc1c[nH]c2ccccc12)NC(=O)[C@H](CC(C)C)NC(=O)[C@@H]1C=CCN1C(=O)OC(C)(C)C [compound 13, Boc-.gradient.^3,4 -(L)-Pro-(L)-Leu-(L)-TrpOMe] (Boc-[ΔPro]-Leu-Trp-OMe) | slightly anti-hypertensive |  | slightly increases the immune response | 
COC(=O)[C@H](Cc1c[nH]c2ccccc12)NC(=O)[C@H](CC(C)C)NC(=O)[C@@H]1CCCCN1C(=O)OCc1ccccc1 [compound 15, Z-(L)-Pip-(L)-Leu-(L)-TrPOMe] (Cbz-[Pip]-Leu-Trp-OMe) |  | consistent | slight increase in immune response | anti-hypertensive effect (in words) ([1]; 2 mg/Kg i.v.): good anti-hypertensive effect; reduction of pressure ([1]; 2 mg/Kg i.v.): up to 30%
C[C@H](NC(=O)[C@@H]1CCCN1C(=O)OCc1ccccc1)C(=O)NCCc1c[nH]c2ccccc12 [compound 2, Z-(L)-Pro-(L)-Ala-TrpH] | comparable to that of compound 1 |  | increased, but to a lesser extent than in the previous compound | 
COC(=O)C(Cc1c[nH]c2ccccc12)NC(=O)C(CC(C)C)NC(=O)C1CC(O)CN1C(=O)OCc1ccccc1 (stereo not drawn) [compound 16, Z-(L)-Hyp-(L)-Leu-(L)-TrpOMe] (Cbz-[Hyp]-Leu-Trp-OMe; configuration not given here) | bland anti-hypertensive action |  |  | analgesic effect (in words) [3]: modest analgesic effect
COC(=O)[C@H](Cc1c[nH]c2ccccc12)NC(=O)[C@H](CC(C)C)NC(=O)[C@@H]1CCCO1 [compound 18, (S)-Tfc-(L)-Leu-(L)-TrpOMe] | bland anti-hypertensive effect |  | stimulates the immune response in a moderate manner | 
COC(=O)[C@H](Cc1c[nH]c2ccccc12)NC(=O)[C@H](CC(C)C)NC(=O)c1ccc[nH]1 [compound 9, 2-Pyrrolyl-(L)-Leu-(L)-TrpOMe] | slight effect on pressure | bland reduction of inflammatory responses |  | 
COC(=O)C(Cc1c[nH]c2ccccc12)NC(=O)C(CC(C)C)NC(=O)C1CCCN1C.Cl (stereo not drawn) [compound 10, N-Me-(L)-Pro-(L)-Leu-(L)-TrpOMe.HCl] |  |  | slightly increased | analgesic effect (in words) [3]: low analgesic effect; anti-hypertensive effect (in words) ([1]; 2 mg/Kg i.v.): excellent anti-hypertensive effect; reduction of pressure ([1]; 2 mg/Kg i.v.): 15-20%
COC[C@H](Cc1ccccc1)NC(=O)CNC(=O)[C@@H]1CCC(=O)N1 [compound 23, (L)-Pyr-Gly-(L)-Pme] |  |  | good immuno-stimulating effect | analgesic effect (in words) [3]: excellent analgesic effect; anti-hypertensive effect (in words) ([1]; 8 mg/Kg i.p.): good anti-hypertensive activity
COC(=O)[C@@H](NC(=O)[C@H](C)NC(=O)[C@@H]1CCCN1C(=O)OCc1ccccc1)c1ccccc1 [compound 5, Z-(L)-Pro-(L)-Ala-(L)-PhgOMe] (Cbz-Pro-Ala-[Phg]-OMe) |  |  |  | anti-hypertensive effect (in words) ([1]; 8 mg/Kg i.p.): bland anti-hypertensive effect; analgesic effect, Hot Plate test (in words) ([5]; dose not stated): moderate analgesic effect
